Measurements published in US20230233489A1 (priority 2020, published 2023).
“And” between values parts separate entries of the source, which are not always exact repeats. Equal values may be shown once. Read-outs that look alike come from different tables or passages of the source.

How the values were obtained:
RAC1 = conditions: IBD patients; cited from earlier work
SARS-CoV-2 [1] = conditions: human, in vivo
SARS-CoV-2 [2] = conditions: human, in vivo; remark: listed apart in the source
SARS-CoV-2 [3] = conditions: cited from earlier work
Ebola virus [4] = conditions: mouse, in vivo; cited from earlier work
[5] = cited from earlier work
MERS-CoV = conditions: read-out: 50% effective concentration [EC50]; cited from earlier work
[6] = in vivo; cited from earlier work
SARS-CoV-1 = conditions: cited from earlier work
Ebola virus [7] = conditions: read-out: 50% inhibitive concentration [IC50]; cited from earlier work

## S=c1nc[nH]c2nc[nH]c12 [Mercaptopurine, mercaptopurine]
RAC1
  RAC1 expression: lower RAC1 expression

## COc1ccccc1OCCNCC(O)COc1cccc2[nH]c3ccccc3c12 (centres unmarked) [carvedilol]
SARS-CoV-2 [1]
  odds ratio of a positive laboratory test result for SARS-CoV-2: 0.74 and 0.90 and 0.73

## COc1ccc2[nH]cc(CCNC(C)=O)c2c1 [melatonin]
SARS-CoV-2 [1]
  odds ratio of SARS-CoV-2 positive test: 0.52 and 0.61 and 0.80
SARS-CoV-2 [2]
  odds ratio of a positive laboratory test result for SARS-CoV-2: 0.36 and 0.35 and 0.56 and 0.46

## CN(C)CCOc1ccc(/C(=C(/CCCl)c2ccccc2)c2ccccc2)cc1 [toremifene]
SARS-CoV-2 [3]
  IC50: 3.58 µM
Ebola virus [4]
  survival rate: significantly improved survival rate
[5]
  bound to plasma protein: 99%
MERS-CoV
  EC50: 12.9 µM
[6]
  bioavailability: good
SARS-CoV-1
  EC50: 12 µM
Ebola virus [7]
  IC50: ~1 µM
